Laboratory results published in ChEMBL document CHEMBL1151536, “Biaryl substituted alkylboronate esters as thrombin inhibitors” (Bioorg Med Chem Lett, 1997).

Tests used:
Serine protease 1 = Serine protease 1 (Homo sapiens, UniProt P07477); test: Inhibition of trypsin
Prothrombin = Prothrombin (Homo sapiens, UniProt P00734); test: Inhibition of thrombin; parameters: species or system Oryctolagus cuniculus
[1] = In vitro inhibitory concentration expressed as thrombin time of the compound; assay type: functional

Sequence of Serine protease 1 (P07477 whole entry): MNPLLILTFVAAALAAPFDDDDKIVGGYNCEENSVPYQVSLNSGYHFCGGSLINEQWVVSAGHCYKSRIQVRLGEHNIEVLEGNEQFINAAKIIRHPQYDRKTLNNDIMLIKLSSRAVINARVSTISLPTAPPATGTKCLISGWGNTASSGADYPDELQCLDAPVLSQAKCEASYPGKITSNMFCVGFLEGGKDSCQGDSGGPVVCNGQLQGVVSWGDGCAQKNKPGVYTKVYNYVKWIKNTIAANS

Compound | Ki (Serine protease 1) [nM] | Ki (Prothrombin) [nM] | IC50 [1] [nM]
N=C(N)NCCC[C@H](NC(=O)c1ccc(-c2ccccc2)cc1)B(O)O |  | 1.7 | 
CC(C)(C)OC(=O)Nc1cccc(-c2ccc(C(=O)N[C@@H](CCCNC(=N)N)B3O[C@@H]4CC5CC(C5(C)C)[C@]4(C)O3)s2)c1 (some centres not stated) | 13 | 42 | 
COC(=O)NS(=O)(=O)c1ccccc1-c1ccc(C(=O)N[C@@H](CCCN=C(N)N)B2O[C@@H]3CC4CC(C4(C)C)[C@]3(C)O2)c(C)c1 (some centres not stated) | 0.64 | 1.1 | 225
Cc1nc(-c2ccccc2)ccc1C(=O)N[C@@H](CCCCN)B1O[C@@H]2CC3CC(C3(C)C)[C@]2(C)O1 (some centres not stated) |  | 580 | 
Cc1nc(-c2ccccc2)ncc1C(=O)N[C@@H](CCCCN)B1O[C@@H]2CC3CC(C3(C)C)[C@]2(C)O1 (some centres not stated) |  | 410 | 
CCN(CC)S(=O)(=O)c1ccccc1-c1ccc(C(=O)N[C@@H](CCCNC(=N)N)B2O[C@@H]3CC4CC(C4(C)C)[C@]3(C)O2)c(C)c1 (some centres not stated) | 0.62 | 0.36 | 
CC(=O)N[C@H](Cc1ccccc1)C(=O)N1CCC[C@H]1C(=O)N[C@@H](CCCN=C(N)N)B(O)O |  |  | 55
CC(C)(C)OC(=O)Nc1cccc(-c2cccc(C(=O)N[C@@H](CCCN=C(N)N)B3O[C@@H]4CC5CC(C5(C)C)[C@]4(C)O3)c2)c1 (some centres not stated) | 35 | 8.3 | 
CC(C)(C)OC(=O)Nc1cccc(-c2ccc(C(=O)N[C@@H](CCCN=C(N)N)B3O[C@@H]4CC5CC(C5(C)C)[C@]4(C)O3)o2)c1 (some centres not stated) | 25 | 30 | 
CC1(C)C2CC1[C@]1(C)OB([C@H](CCCNC(=N)N)NC(=O)c3ccc(-c4ccccc4)o3)O[C@@H]1C2 (some centres not stated) |  | 137 | 
Cc1cc(-c2ccccc2S(=O)(=O)NC(C)(C)C)ccc1C(=O)N[C@@H](CCCN=C(N)N)B1O[C@@H]2CC3CC(C3(C)C)[C@]2(C)O1 (some centres not stated) | 0.7 | 0.21 | 140
Cc1cc(-c2ccccc2C(F)(F)F)ccc1C(=O)N[C@@H](CCCN=C(N)N)B1O[C@@H]2CC3CC(C3(C)C)[C@]2(C)O1 (some centres not stated) | 3.1 | 0.46 | 
Cc1cc(-c2ccccc2S(N)(=O)=O)ccc1C(=O)N[C@@H](CCCN=C(N)N)B1O[C@@H]2CC3CC(C3(C)C)[C@]2(C)O1 (some centres not stated) | 0.11 | 0.92 | 110
CC1(C)OB([C@H](CCCNC(=N)N)NC(=O)c2ccccc2)OC1(C)C | 70 | 512 | 
CC1(C)C2CC1[C@]1(C)OB([C@H](CCCNC(=N)N)NC(=O)c3cccc(-c4cccc(NS(C)(=O)=O)c4)c3)O[C@@H]1C2 (some centres not stated) | 3.8 | 3.5 | 

Other lines, results leading:

Ki (Serine protease 1) [nM] | Ki (Prothrombin) [nM] | IC50 [1] [nM] | Compound
4.8 | 4.9 |  | CC1(C)C2CC1[C@]1(C)OB([C@H](CCCN=C(N)N)NC(=O)c3ccc(-c4ccccc4)c([N+](=O)[O-])c3)O[C@@H]1C2 (some centres not stated)
33 | 0.94 |  | CC1(C)C2CC1[C@]1(C)OB([C@H](CCCN=C(N)N)NC(=O)c3ccc(-c4ccccc4)cc3)O[C@@H]1C2 (some centres not stated)
4.7 | 5.5 |  | CC1(C)C2CC1[C@]1(C)OB([C@H](CCCN=C(N)N)NC(=O)c3ccc(-c4ccccc4)c(N)c3)O[C@@H]1C2 (some centres not stated)
4.2 | 0.42 | 600 | Cc1cc(-c2ccccc2)ccc1C(=O)N[C@@H](CCCN=C(N)N)B1O[C@@H]2CC3CC(C3(C)C)[C@]2(C)O1 (some centres not stated)
7.4 | 110 |  | CC1(C)C2CC1[C@]1(C)OB([C@H](CCCNC(=N)N)NC(=O)c3cccc(-c4ccccc4)c3)O[C@@H]1C2 (some centres not stated)
 | 10 |  | Cc1nc(-c2ccccc2)ncc1C(=O)N[C@@H](CCCN=C(N)N)B1O[C@@H]2CC3CC(C3(C)C)[C@]2(C)O1 (some centres not stated)
 | 1.2 |  | CC1(C)C2CC1[C@]1(C)OB([C@H](CCCN=C(N)N)NC(=O)c3ccc(-c4ccccc4)cc3F)O[C@@H]1C2 (some centres not stated)
5.3 | 1.3 |  | CC1(C)C2CC1[C@]1(C)OB([C@H](CCCN=C(N)N)NC(=O)c3ccc(-c4ccccc4)cc3N)O[C@@H]1C2 (some centres not stated)
 | 4.7 |  | CC1(C)C2CC1[C@]1(C)OB([C@H](CCCN=C(N)N)NC(=O)c3ccc(-c4ccccc4)cc3[N+](=O)[O-])O[C@@H]1C2 (some centres not stated)
 | 19 |  | CC1(C)C2CC1[C@]1(C)OB([C@H](CCCNC(=N)N)NC(=O)c3ccc(-c4ccncc4)cc3)O[C@@H]1C2 (some centres not stated)
 | 26 |  | Cc1cc(-c2ccccc2)ccc1C(=O)N[C@@H](CCCCN)B1O[C@@H]2CC3CC(C3(C)C)[C@]2(C)O1 (some centres not stated)
 | 6.9 |  | CC1(C)C2CC1[C@]1(C)OB([C@H](CCCN=C(N)N)NC(=O)Cc3ccc(-c4ccccc4)cc3)O[C@@H]1C2 (some centres not stated)
